This is an account of results in patent EP0226508A1, “Indolo[3,2-c]quinoline derivatives, process for their preparation and their anti-tumour activity” (priority 1985, dated 1987).

Where two headings read alike, the source gives them in different places.

Series [1] deals with lignée tumorale leucémie L 1210. The series is described as follows: In vitro cytotoxic activity on L 1210 leukemia cell culture (inhibition of cell proliferation). Type of series: cell-based. Conditions: L 1210 culture in exponential growth, 37°C, after 48 hours of contact, read-out: ID 50 (the source's name). As to the method: 1) In vitro : (PAOLETTI et al., Chem. Biol. Interaction, 1979, 25, 45-58).
L'activité cytotoxique des composés de l'invention a été évaluée par des essais in vitro. Ces essais consistent à ajouter des concentrations croissantes du composé à tester à une culture cellulaire de la lignée tumorale leucémie L 1210 en phase exponentielle de croissance. Les cellules sont incubées à 37°C dans une étuve à CO₂ et comptées toutes les 24 heures. Le calcul de l'ID₅₀ (concentration du produit exprimée en micromole 1⁻¹ qui inhibe la prolifération cellulaire à 50 p. 100) est effectuée après 48 heures de contact. Ainsi déterminées les ID₅₀ des composés de l'invention sont rassemblées dans le tableau ci-après.

In series [2] the test system is leucémie P 388. The series is described as follows: animal or person. Type of series: in vivo, souris hybrides CDF 1. The following applies: for Nombre de survivants: survivors at J 40; for Variation pondérale en g: in vivo, ip. The text has this:
(§1) L'activité antitumorale a été testée in vivo sur différentes tumeurs selon le protocole général suivant:
(§2) Toutes les souris mâles ou femelles sont inoculées par voie intrapéritonéale au jour Jo avec une quantité déterminée de cellules tumorales viables, variable selon la tumeur.
(§3) Elles sont ensuite réparties en différents lots. Chaque lot correspondant aux animaux traités par le produit à tester à une dose déterminée est composé de 10 souris. Dans ce cas, le produit à tester est dissous dans l'eau distillée et il est administré, pendant n jours (J₁-Jn) variables selon le protocole choisi, par voie intrapéritonéale à raison de 0,1 ml par 10 g de poids des souris traitées, les doses du produit administré étant précisées dans les tableaux ci-dessous.
(§4) Le lot "contrôle négatif", correspondant aux animaux qui ne sont pas traités par un produit, comprend 2 √N animaux, N étant égal au nombre total de souris traitées par un produit.
(§5) Enfin, tous les essais sont conduits parallèlement à l'étude d'un lot appelé "contrôle positif" de 10 animaux qui est traité par une molécule active, variable selon le protocole choisi, dans les mêmes conditions que les lots traités par le produit à tester, afin de valider l'essai.
(§6) L'activité antitumorale est évaluée en considé-rant l'augmentation du temps de survie des animaux traités par rapport à celui des animaux du lot "contrôle négatif" selon la formule : [formula]
(§7) Un composé est considéré comme étant actif lorsque la valeur du rapport T/C est égale ou supérieure à 125 % selon le protocole retenu. Il est toxique lorsque cette valeur est égale ou inférieure à 85 %. Le produit est également considéré comme toxique lorsque la variation pondérale, exprimée en grammes et calculée par la formule : Poids moyen du lot mesuré au jour 5 -poids moyen du même lot au jour 1 est égale ou inférieure à - 4 g.
a) Test de la leucémie P 388 (GERAN et al., Cancer Chemother, 1972, 2, 07-57).
Les essais sont effectués avec des souris hybrides CDF 1 inoculées par voie intrapéritonéale avec 10⁶ cellules leucémiques de la lignée P 388. Le composé à tester est administré pendant 5 jours (J1-J5). Le contrôle positif du test est le 5-fluorouracile qui est administré dans les mêmes conditions. Le nombre d'animaux survivants est évalué au jour J 40. Un composé est considéré comme étant actif lorsque le rapport T/C est supérieur à 127 %.

Series [3] concerns souris consanguines DBA₂ saines. The series is described as follows: Acute toxicity, single intraperitoneal injection in healthy mice, mortality at day 7. Type of series: in vivo. Conditions: single i.p. injection, 50 mg/kg.
For series [4], the system named is leucémie L 1210. As to the kind of experiment: In vivo antitumour activity, L 1210 leukemia test. The arrangement: species or system souris hybrides CDF₁. The following applies: L 1210, CDF₁ mice; for Nombre de survivants: survivors at J 30.
Description: as §1, §2, §3, §4, §5, §6, §7
b) Test de la leucémie L 1210 (GERAN et al., Cancer Chemother, 1972, 2, 07-57).
Les essais sont effectués avec des souris hybrides CDF₁ inoculées avec 10⁵ cellules leucémiques de la lignée L 1210. Le composé à tester est administré pendant 5 jours (J₁-J₅).Le contrôle positif du test est le 5-fluorouracile administré dans les mêmes conditions. Le nombre d'animaux survivants est évalué au jour J 30. Un composé est considéré comme étant actif lorsque le rapport T/C est supérieur ou égal à 125 %.

Series [5] relates to mélanome B 16. The series is described as follows: In vivo antitumour activity, B 16 melanoma test. Details: species or system souris hybrides BDF₁. Conditions: for Variation pondérale en g: in vivo, ip.
Description: as §1, §2, §3, §4, §5, §6
Le produit est également considéré comme toxique lorsque la variation pondérale, exprimée en grammes et calculée par la formule : Poids moyen du lot mesuré au jour 5 -poids moyen du même lot au jour 1 est égale ou inférieure à - 4 g.
Les essais sont effectués avec des souris hybrides BDF₁ inoculées avec 0,5 ml d'un homogénat de mélanome B 16 réalisé à partir de 1 g de tumeur dans 10 ml de sérum physiologique. Le composé à tester est administré pendant 9 jours (J₁-J₉).Le contrôle positif du test est le Cis-Platine administré dans les mêmes conditions. Le nombre d'animaux survivants est évalué au jour J 60.

Setting [6] is: Mus musculus, P388, ip, P 388, CDF 1 mice, 10 mg/kg i.p. J1-J5, read-out: T/C %.
Setting [7] is: Mus musculus, P388, ip, P 388, CDF 1 mice, 20 mg/kg i.p. J1-J5, read-out: T/C %.
Setting [8] is: P 388, CDF 1 mice, 10 mg/kg i.p. J1-J5.
The mark [9] stands for this setting: P 388, CDF 1 mice, 20 mg/kg i.p. J1-J5.
Where [10] appears, read: Mus musculus, P388, ip, P 388, CDF 1 mice, 5 mg/kg i.p. J1-J5, read-out: T/C %.
Setting [11] is: Mus musculus, P388, ip, P 388, CDF 1 mice, 2,5 mg/kg i.p. J1-J5, read-out: T/C %.
[12] abbreviates: P 388, CDF 1 mice, 5 mg/kg i.p. J1-J5.
Where [13] appears, read: P 388, CDF 1 mice, 2,5 mg/kg i.p. J1-J5.
[14] abbreviates: B 16 melanoma, BDF₁ mice, 5 mg/kg i.p. J1-J9.
[15] abbreviates: B 16 melanoma, BDF₁ mice, 20 mg/kg i.p. J1-J9.

For the compound `CCN(CC)CCCNc1nc2ccccc2c2[nH]c3ccc(OC)cc3c12` [Dérivé N°5, (diéthylamino-3 propylamino)-6 méthoxy-8 11-H indolo[3,2-c]quinoléine], the IC50 in series [1] (Mus musculus, L1210) is 690 nM. Further, the response vs control in vivo at 10 mg/kg in series [2] (setting [6]) stood at 128%. The response vs control in vivo at 20 mg/kg in series [2] (setting [7]) was determined as 124%. Moreover, the response vs control in vivo at 40 mg/kg in series [2] (Mus musculus, P388, ip, P 388, CDF 1 mice, 40 mg/kg i.p. J1-J5, read-out: T/C %) came to 80%. Also, the Nombre de survivants in series [2] (setting [8]) is on record as 0; in series [2] (setting [9]), 0; in series [2] (P 388, CDF 1 mice, 40 mg/kg i.p. J1-J5), 0. In addition, the results for the “Variation pondérale en g” value in series [2] (10 mg/kg), in series [2] (20 mg/kg) and in series [2] (40 mg/kg) were “- 0,6 g”, “+ 0,8 g” and “- 2,1 g”, respectively. Also, the “mortalité évaluée au septième jour après l'administration” value in series [3] was “aucune mortalité”.

For `CN(C)CCCNc1nc2ccccc2c2[nH]c3ccc(O)cc3c12` [Dérivé N°12, (diméthylamino-3 propylamino)-6 hydroxy-8 11-H indolo [3,2-c]quinoléine], the IC50 in series [1] (Mus musculus, L1210) came out at 80 nM. Also, the response vs control in vivo at 5 mg/kg in series [2] (setting [10]) was determined as 155%. For the same compound, the response vs control in vivo at 10 mg/kg in series [2] (setting [6]) turned out to be 141%. Besides, in series [2] (Mus musculus, P388, ip, P 388, CDF 1 mice, 0,625 mg/kg i.p. J1-J5, read-out: T/C %), the response vs control in vivo at 0.625 mg/kg worked out at 129%. The response vs control in vivo at 1.25 mg/kg in series [2] (Mus musculus, P388, ip, P 388, CDF 1 mice, 1,25 mg/kg i.p. J1-J5, read-out: T/C %) came to 130%. For the same compound, the response vs control in vivo at 2.5 mg/kg in series [2] (setting [11]) worked out at 141%. The Nombre de survivants in series [2] (setting [12]) is 0; in series [2] (setting [8]), 0; in series [2] (P 388, CDF 1 mice, 0,625 mg/kg i.p. J1-J5), 0; in series [2] (P 388, CDF 1 mice, 1,25 mg/kg i.p. J1-J5), 0; in series [2] (setting [13]), 0. Besides, the “Variation pondérale en g” value in series [2] (5 mg/kg) was “- 1,2 g”; in series [2] (10 mg/kg), “- 1,7 g”. Moreover, in series [3], the “mortalité évaluée au septième jour après l'administration” value is listed as “aucune mortalité”.

In the case of `Oc1ccc2[nH]c3c4ccccc4nc(NCCCN4CCOCC4)c3c2c1` [Dérivé N°15, hydroxy-8 (morpholino-3 propylamino)-6 11-H indolo[3,2-c]quinoléine], in series [4] (10 mg/kg i.p. J1-J5), the “Jour médian de survie” value is reported as 10,2, the T/C % was 129% and the Nombre de survivants turned out to be 0. Further, the IC50 in series [1] (Mus musculus, L1210) came to 280 nM. Moreover, the response vs control in vivo at 5 mg/kg in series [2] (setting [10]) was determined as 130%. In addition, the response vs control in vivo at 2.5 mg/kg in series [2] (setting [11]) is 124%. Besides, the Nombre de survivants in series [2] (setting [12]) is given as 0. Moreover, the Nombre de survivants in series [2] (setting [13]) was determined as 0. Moreover, the “Variation pondérale en g” value in series [2] (5 mg/kg) was “- 1,1 g”. Also, the “mortalité évaluée au septième jour après l'administration” value in series [3] is listed as “aucune mortalité”.

In the case of `Oc1ccc2[nH]c3c4ccccc4nc(NCCCN4CCCCC4)c3c2c1` [Dérivé N°16, hydroxy-8 (pipéridino-3 propylamino)-6 11-H indolo[3,2-c]quinoléine], the “Jour médian de survie” value in series [4] (5 mg/kg i.p. J1-J5) is 10; in series [4] (10 mg/kg i.p. J1-J5), 10,4; in series [4] (20 mg/kg i.p. J1-J5), 10,2. The T/C % in series [4] (5 mg/kg i.p. J1-J5) is 126%; in series [4] (10 mg/kg i.p. J1-J5), 131%; in series [4] (20 mg/kg i.p. J1-J5), 129%. In addition, the Nombre de survivants in series [4] (5 mg/kg i.p. J1-J5), in series [4] (10 mg/kg i.p. J1-J5), in series [4] (20 mg/kg i.p. J1-J5), in series [2] (setting [8]), in series [2] (setting [9]) and in series [2] (setting [13]) was 0 each time. Also, the IC50 in series [1] (Mus musculus, L1210) amounted to 180 nM. In series [2] (setting [10]), the response vs control in vivo at 5 mg/kg worked out at 133%. In addition, in series [2] (setting [6]), the response vs control in vivo at 10 mg/kg stood at 130%. For the same compound, the response vs control in vivo at 20 mg/kg in series [2] (setting [7]) amounted to 77%. Further, the response vs control in vivo at 2.5 mg/kg in series [2] (setting [11]) stood at 140%. The “Variation pondérale en g” value is listed as “- 1,7 g” in series [2] (5 mg/kg), “- 2,5 g” in series [2] (10 mg/kg) and “- 4,2 g” in series [2] (20 mg/kg). The “mortalité évaluée au septième jour après l'administration” value in series [3] was “aucune mortalité”.

For the compound “(éthylamino-3 propylamino)-6 hydroxy-8 11-H indolo[3,2-c]quinoléine [Dérivé N°14]”, the “Jour médian de survie” value is reported as 34,25 in series [5] (setting [14]), 38,75 in series [5] (setting [15]), 14,0 in series [2] (setting [12]) and 14,0 in series [2] (setting [13]). Besides, the T/C % in series [5] (setting [14]) is 123%; in series [5] (setting [15]), 139%; in series [2] (setting [12]), 127%; in series [2] (setting [13]) it was 127%. For the same compound, the Nombre de survivants in series [5] (B 16 melanoma, BDF₁ mice, 20 mg/kg i.p. J1-J9, survivors at J 60) was 0; in series [2] (setting [12]), 0; in series [2] (setting [13]), 0. In addition, the “Variation pondérale en g” value in series [5] (5 mg/kg) is on record as “- 0,2 g”; in series [5] (20 mg/kg), “- 1,3 g”; in series [2] (5 mg/kg), “+ 1,7 g”. Also, the IC50 in series [1] is 1400 nM. For the same compound, the “mortalité évaluée au septième jour après l'administration” value in series [3] is reported as “aucune mortalité”.
